Experimental findings from PMC5053523, “In Vitro Antibacterial Activity of Rhodanine Derivatives against Pathogenic Clinical Isolates” (PLoS ONE, 2016) are described below.

Assay [1] has as its system Candida albicans. Put plainly: MIC against Candida albicans. It counts as cell-based. Conditions: table prints none.
Assay [2] deals with Clostridium difficile. Put plainly: MIC against Clostridium difficile, anaerobic broth dilution. In kind it is cell-based. Conditions: Clostridioides difficile. On the procedure: Clinical isolates of C. difficile were cultured on anaerobic blood agar and incubated anaerobically using container gas pack system at 37° C for 48 hours. The colonies were then suspended in pre-reduced phosphate buffered saline (PBS) and adjusted to 0.5 McFarland standard then diluted 1:300 in pre-reduced Supplemented Brain Heart Infusion broth. The bacterial suspension was then transferred to each well of 96-well plates, the drugs were added to the first row of wells in the required concentrations and serially diluted along the plates. The plates were incubated again anaerobically using container gas pack system at 37° C for 48 hours. The (MIC) recorded was the lowest concentration of the drug showing no visible growth of the bacteria.
(Broth dilution looks for growth in wells or tubes with falling amounts of substance.)

The test system of assay [3] is MRSA USA300. Put plainly: MIC against MRSA USA300 with and without 4% human serum albumin. Conditions: for antibacterial activity in the presence or absence of HSA: MRSA USA300; for MIC: Staphylococcus aureus, read-out: MIC against MRSA USA300. In kind it is cell-based, Staphylococcus aureus. How it is done: The minimum inhibitory concentration (MIC) and the minimum bactericidal concentration (MBC) of rhodanine compounds 1 to 7 were determined against various Gram-positive and Gram-negative pathogens (S1 Table) following the guidelines of the Clinical and Laboratory Standards Institute (CLSI)[4]. The broth microdilution technique was used, followed by subculturing on agar plates that were rhodanine—free. […] The MICs reported represent the lowest concentration of each compound necessary to inhibit bacterial growth and the MBCs represent the lowest concentration required to reduce the initial bacterial inoculum by ≥ 99.9%.
The antimicrobial activity of rhodanine compounds in the presence of 4% human serum albumin (HSA) was tested against MRSA USA300. The MICs of rhodanine compounds and control antibiotics (vancomycin and daptomycin) were tested as described in the methods above using tryptic soy broth spiked with 4% HSA. We also synthesized and tested three more compounds, ethyl ester and amide of rhodanine 2 (Rh 8 and Rh 10, respectively) and ethyl ester of rhodanine 3 (Rh 9) to determine the influence of a carboxyl group modification toward anti-MRSA activity and human serum albumin (HSA) binding.

The subject of assay [4] is Acinetobacter baumannii. The assay is described as follows: MIC with/without sub-MIC colistin, Acinetobacter baumannii. It counts as cell-based. On the procedure: (§1) The MIC of the rhodanines and control antibiotics, in the presence of a sub-inhibitory concentration of colistin or polymixin B nonapeptide (PMBN), against Gram-negative bacteria was evaluated as described before. The antibacterial activity of the rhodanines was further investigated against E. coli SM1411Δ acrAB, a strain that is deficient in the multidrug-resistant AcrAB efflux pump, as described before.

Assay [5] has as its system Escherichia coli O157:H7. Put plainly: MIC with/without sub-MIC colistin, Escherichia coli O157:H7. In kind it is cell-based. How it is done: as §1
Assay [6] deals with Salmonella Typhimurium. The assay is described as follows: MIC with/without sub-MIC colistin, Salmonella Typhimurium. In kind it is cell-based. Conditions: Salmonella Typhimurium ATCC 700720. On the procedure:
as §1

Assay [7] relates to Klebsiella pneumoniae. Put plainly: MIC with/without sub-MIC colistin, Klebsiella pneumoniae. In kind it is cell-based. Conditions: Klebsiella pneumoniae ATCC BAA 2146. How it is done: as §1
Assay [8] deals with Pseudomonas aeruginosa. The assay is described as follows: MIC with/without sub-MIC colistin, Pseudomonas aeruginosa. In kind it is cell-based. Conditions: Pseudomonas aeruginosa, ATCC921. On the procedure:
as §1

The subject of assay [9] is Acinetobacter baumannii. Put plainly: MIC with/without PMBN, Acinetobacter baumannii. It counts as cell-based. On the procedure: as §1
Assay [10] deals with Escherichia coli O157:H7. Put plainly: MIC with/without PMBN, Escherichia coli O157:H7. It counts as cell-based. On the procedure: as §1
The subject of assay [11] is Klebsiella pneumoniae. The assay is described as follows: MIC with/without PMBN, Klebsiella pneumoniae. It counts as cell-based. On the procedure: as §1
Assay [12] has as its system Pseudomonas aeruginosa. Put plainly: MIC with/without PMBN, Pseudomonas aeruginosa. In kind it is cell-based. Conditions: Pseudomonas aeruginosa, ATCC9721. On the procedure:
as §1

[13] abbreviates: ATCC10231, C. albicans ATCC 10231, unit from abstract, read-out: MIC.
The mark [14] stands for this setting: ATCC10231, C. albicans ATCC 10231, unit from abstract, read-out: MIC (second value after the slash).
Setting [15] is: C. albicans NR 29434, unit from abstract, read-out: MIC.
The mark [16] stands for this setting: C. albicans NR 29434, unit from abstract, read-out: MIC (second value after the slash).
Setting [17] is: C. albicans NR 29435, unit from abstract, read-out: MIC.
Setting [18] is: C. albicans NR 29435, unit from abstract, read-out: MIC (second value after the slash).
The mark [19] stands for this setting: C. albicans NR29437, unit from abstract, read-out: MIC.
The mark [20] stands for this setting: C. albicans NR29438, unit from abstract, read-out: MIC.
The mark [21] stands for this setting: C. albicans NR29438, unit from abstract, read-out: MIC (second value after the slash).
The mark [22] stands for this setting: C. albicans NR 29446, unit from abstract, read-out: MIC.
Setting [23] is: C. albicans NR 29448, unit from abstract, read-out: MIC.
Setting [24] is: C. albicans NR 29449, unit from abstract, read-out: MIC.
The mark [25] stands for this setting: C. albicans NR 29449, unit from abstract, read-out: MIC (second value after the slash).
Where [26] appears, read: C. albicans NR 29453, unit from abstract, read-out: MIC.
Setting [27] is: C. albicans NR 29453, unit from abstract, read-out: MIC (second value after the slash).
[28] abbreviates: C. albicans NR 294436, unit from abstract, read-out: MIC.
Setting [29] is: C. albicans NR 294436, unit from abstract, read-out: MIC (second value after the slash).
Where [30] appears, read: Acinetobacter baumannii ATCC BAA747.
Where [31] appears, read: Acinetobacter baumannii ATCC BAA19606.
[32] abbreviates: Escherichia coli O157:H7 ATCC 35150.
Where [33] appears, read: Escherichia coli O157:H7 ATCC 700728.

In brackets after ≈: the same amount, converted by molar mass. Like-named read-outs stand apart in the source and are kept apart here.

By MIC is commonly meant the least concentration at which growth counts as inhibited.

`C[C@@H]1[C@H](O)[C@@H](C)/C=C/C=C/C=C/C=C/C=C/C=C/C=C/[C@H](O[C@@H]2O[C@H](C)[C@@H](O)[C@H](N)[C@@H]2O)C[C@@H]2O[C@](O)(C[C@@H](O)C[C@@H](O)[C@H](O)CC[C@@H](O)C[C@@H](O)CC(=O)O[C@H]1C)C[C@H](O)[C@H]2C(=O)O` [Amphotericin B, amphotericin B, reference compound]: the MIC in assay [1] (setting [13]) was 1 µM (≈ 0.924 µg/mL); in [1] (setting [14]) it was 1 µM (≈ 0.924 µg/mL); in assay [1] (setting [15]), 2 µM (≈ 1.85 µg/mL); in [1] (setting [16]) it was 2 µM (≈ 1.85 µg/mL); in assay [1] (setting [17]), 1 µM (≈ 0.924 µg/mL); in assay [1] (setting [18]), 2 µM (≈ 1.85 µg/mL). Also, the MIC in [1] (setting [19]) was 2 µM (≈ 1.85 µg/mL); in assay [1] (setting [20]) it was 1 µM (≈ 0.924 µg/mL); in assay [1] (setting [21]), 4 µM (≈ 3.7 µg/mL); in assay [1] (setting [22]) it was 1 µM (≈ 0.924 µg/mL); in [1] (C. albicans NR 29446, unit from abstract, read-out: MIC (second value after the slash)), 1 µM (≈ 0.924 µg/mL); in assay [1] (setting [23]) it was 2 µM (≈ 1.85 µg/mL). Also, the minimal inhibitory concentration (MIC) in [1] (C. albicans NR 29448, unit from abstract, read-out: MIC (second value after the slash)) is 2 µM (≈ 1.85 µg/mL); in assay [1] (setting [24]) it was 1 µM (≈ 0.924 µg/mL); in [1] (setting [25]), 2 µM (≈ 1.85 µg/mL); in assay [1] (setting [26]), 1 µM (≈ 0.924 µg/mL); in assay [1] (setting [27]) it was 2 µM (≈ 1.85 µg/mL); in assay [1] (setting [28]), 2 µM (≈ 1.85 µg/mL). Further, in assay [1] (setting [29]), the MIC is 2 µM (≈ 1.85 µg/mL).

`OC(Cn1cncn1)(Cn1cncn1)c1ccc(F)cc1F` [Fluconazole, fluconazole, reference compound]: the MIC is less than 0.5 µM in assay [1] (setting [13]); 1 µM (≈ 0.306 µg/mL) in assay [1] (setting [14]); less than 0.5 µM in assay [1] (setting [15]); 1 µM (≈ 0.306 µg/mL) in assay [1] (setting [16]); less than 0.5 µM in assay [1] (setting [17]); greater than 64 µM in assay [1] (setting [18]). Also, the MIC in assay [1] (setting [19]) was 1 µM (≈ 0.306 µg/mL); in assay [1] (setting [20]), less than 0.5 µM; in assay [1] (setting [21]) it was greater than 64 µM; in assay [1] (setting [22]), greater than 64 µM; in assay [1] (setting [23]), greater than 64 µM; in assay [1] (setting [24]), less than 0.5 µM. The MIC in [1] (setting [25]) was greater than 64 µM; in assay [1] (setting [26]) it was less than 0.5 µM; in assay [1] (setting [27]), less than 0.5 µM; in assay [1] (setting [28]), less than 0.5 µM; in [1] (setting [29]), greater than 64 µM.

With `Cc1ncc([N+](=O)[O-])n1CCO` [Metronidazole, reference compound], the MIC was determined as 0.25 µM (≈ 0.0428 µg/mL) in assay [2] (C. difficile HM-88); 0.5 µM (≈ 0.0856 µg/mL) in [2] (C. difficile HM-745); 0.125 µM (≈ 0.0214 µg/mL) in assay [2] (C. difficile HM-746); 0.25 µM (≈ 0.0428 µg/mL) in [2] (C. difficile Isolate-1 NR-13427); 1 µM (≈ 0.171 µg/mL) in assay [2] (C. difficile Toxigenic Strain P8 NR-32888).

Take `CCOC(=O)[C@H](Cc1ccccc1)N1C(=O)/C(=C/c2cccc(-c3ccc(Cl)c(Cl)c3)c2)SC1=S` [Rh 8, Ethyl (L,Z)-2-(5-((3',4'-dichloro-[1,1'-biphenyl]-3-yl)methylene)-4-oxo-2-thioxothiazolidin-3-yl)-3-phenylpropanoate]: the “antibacterial activity in the presence or absence of HSA” value (from here on “antibacterial activity”) in assay [3] is given as “not active”. Besides, the MIC in [3] (24 h, Media TSB + 4% HSA) is greater than 64 µM; in assay [3] (Media TSB) it was greater than 64 µM.

On to `CCOC(=O)[C@H](Cc1ccccc1)N1C(=O)/C(=C/c2cccc(Cc3ccc(Cl)c(Cl)c3)c2)SC1=S` [Rh 9, Ethyl (L,Z)-2-(5-(3-(3,4-dichlorobenzyl)benzylidene)-4-oxo-2-thioxothiazolidin-3-yl)-3-phenylpropanoate], for which the “antibacterial activity” value in assay [3] is “not active”. Moreover, the MIC in assay [3] (24 h, Media TSB + 4% HSA) was greater than 64 µM; in assay [3] (Media TSB), greater than 64 µM.

In the case of `NC(=O)[C@H](Cc1ccccc1)N1C(=O)/C(=C/c2cccc(-c3ccc(Cl)c(Cl)c3)c2)SC1=S` [Rh 10, (L,Z)-2-(5-((3',4'-dichloro-[1,1'-biphenyl]-3-yl)methylene)-4-oxo-2-thioxothiazolidin-3-yl)-3-phenylpropanamide], the “antibacterial activity” value in assay [3] is recorded as “not active”. Further, the minimum inhibitory concentration (MIC) was greater than 64 µM in [3] (24 h, Media TSB + 4% HSA) and greater than 64 µM in assay [3] (Media TSB).

As for colistin [reference compound], the MIC of colistin in assay [4] (setting [30]) was determined as 0.25 µg/mL; in [4] (setting [31]), 0.5 µg/mL; in [5] (setting [32]) it was 0.125 µg/mL; in [5] (setting [33]) it was 0.0625 µg/mL; in assay [6], 1 µg/mL; in assay [7], 0.5 µg/mL. The MIC of colistin in assay [8] came out at 1 µg/mL.

On to “polymixin B nonapeptide [PMBN, reference compound]”, for which the “MIC of PMBN” value in [9] (setting [30]), in [9] (setting [31]), in assay [10] (setting [32]), in [10] (setting [33]), in assay [11] (Klebsiella pneumoniae ATCC BAA 1706) and in assay [11] (Klebsiella pneumoniae ATCC BAA 2146) was greater than 128 µg/mL in each case. Further, in [12], the “MIC of PMBN” value is greater than 128 µg/mL.
